Experimental data as given in US4423242A, “Pharmaceutical amides, and preparation, formulations and use of thereof” (The Wellcome Foundation Ltd., priority 1981, dated 1983).
Structures can show the parent of a compound that is named as a salt.

target: T1, purified enkephalinase Al (Rattus norvegicus, UniProt P07861); assay: Enkephalinase-inhibiting activity in vitro (inhibition of 3H-TGG generation from 3H-leucine enkephalin); format: biochemical; conditions: approximate, determined graphically; leucine enkephalin 5×10^-5 M; 30° C.; 30 min with enzyme; read-out: IC50 (concentration of test compound required for 50% inhibition of 3H-TGG generation)
T1 construct: the solubilised enzymes contained in the supernatant separated by DEAE-cellulose column chromatography; from tissue; host or cells: rat striatum, washed membrane pellet solubilised with Triton X-100, DEAE-cellulose then Sephacryl S.300
T1 sequence (P07861 1-750): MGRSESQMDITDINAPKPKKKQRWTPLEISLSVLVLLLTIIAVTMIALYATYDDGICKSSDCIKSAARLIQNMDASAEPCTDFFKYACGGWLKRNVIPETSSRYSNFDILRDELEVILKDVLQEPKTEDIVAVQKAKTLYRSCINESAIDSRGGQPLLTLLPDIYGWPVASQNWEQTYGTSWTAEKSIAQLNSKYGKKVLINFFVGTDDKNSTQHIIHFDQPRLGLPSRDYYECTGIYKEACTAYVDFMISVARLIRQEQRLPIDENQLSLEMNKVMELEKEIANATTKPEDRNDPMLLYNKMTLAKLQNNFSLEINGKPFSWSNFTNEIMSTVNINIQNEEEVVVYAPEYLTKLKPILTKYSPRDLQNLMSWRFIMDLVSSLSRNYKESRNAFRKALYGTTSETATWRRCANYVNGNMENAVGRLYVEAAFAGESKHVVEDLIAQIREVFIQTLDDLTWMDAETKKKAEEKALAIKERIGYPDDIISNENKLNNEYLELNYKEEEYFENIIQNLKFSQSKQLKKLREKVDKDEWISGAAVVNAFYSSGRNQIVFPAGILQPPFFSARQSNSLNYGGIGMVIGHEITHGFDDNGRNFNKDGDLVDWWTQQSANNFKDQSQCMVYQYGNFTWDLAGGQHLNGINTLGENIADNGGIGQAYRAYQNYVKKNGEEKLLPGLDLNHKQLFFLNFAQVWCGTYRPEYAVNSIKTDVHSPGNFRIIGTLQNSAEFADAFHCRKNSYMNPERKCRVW
Description: The compounds were investigated for enkephalinase-inhibiting activity using the following method.
Purified enkephalinase Al was obtained according to the following procedure (modification of the method of Gorenstein and Snyder, Life Science, Vol. 25, pages 2065-2070, 1979).
Rats were killed by decapitation and the striata dissected out on ice. The pooled tissues were homogenised in ice-cold Tris/hydrochloric acid buffer (50 mM, pH 7.70, 30 ml per gram of tissue) and centrifuged (50,000 g, 15 mins). The resulting supernatent was discarded and the remaining pellet washed three times. The washed pellet was solubilised by resuspension in half the volume of buffer as before containing 1.0% (v/v) Triton X-100 and incubated at 37° C. for 45 mins. The suspension was then centrifuged at 100,000 g for 60 mins and the solubilised enzymes contained in the supernatant separated by DEAE-cellulose column chromatography. Enkephalinase Al was further purified by Sephacryl S.300 chromatography.
Enkephalinase-inhibiting activity was estimated by the following procedure. 1.75 μl of leucine enkephalin (0.317 mg/ml), 0.5 μl of ^3 H-leucine enkephalin (tyrosyl-3,5-^3 H Enkephalin (5-L-Leucine), The Radiochemical Centre, Amersham, England) and 5.75 μl of buffer as before were incubated at 30° C. for 10 mins with 2 μl of either a solution of test compound (in either 50% ethanol/0.1 M sodium hydrogen carbonate or distilled water) or solvent alone as control. 10 μl of purified enkephalinase Al at 30° C. were added and incubation then continued for a further 30 mins (total incubation time 40 mins, final leucine enkephalin concentration 5×10^-5 M, final ^3 H-leucine enkephalin concentration 12.5 μCi/ml). At the completion of incubation 3 μl of 0.16 M hydrochloric acid was added and the incubation mixture cooled on ice.
Separation of (a) unchanged ^3 H-leucine enkephalin and (b) ^3 H-Tyr-Gly-Gly-OH (^3 H-TGG), generated from (a) by enkephalinase Al in the incubation mixture was effected by thin layer chromatography (plastic silica gel plates of 0.1 mm layer chromatography (plastic silica gel plates of 0.1 mm layer thickness, solvent system ethyl acetate: propan-2-ol: 5% (v/v) acetic acid, 2:2:1) using solutions of the cold compounds as carriers. After drying the materials were visualized with ninhydrin and appropriate areas of the plates cut out and placed in scintillation vials containing 50% methanol/0.1 M hydrochloric acid to elute the ^3 H label. Biofluor reagent (10 ml) was then added and the radioactivity determined by liquid scintillation counting.
The ^3 H-TGG generated in the presence of test compound (expressed as a percentage of the control figure) was then calculated and an approximate IC50 figure (concentration of test compound required for 50% inhibition of ^3 H-TGG generation) then determined graphically.

IC50 [nM] | Structure (SMILES)
1800 | COc1ccc(CC(C(=O)N[C@@H](CC(C)C)C(=O)O)P(=O)(O)O)cc1 (single isomer, unassigned) [Compound No. 1, N-[2-(Dihydroxyphosphinyl)-3-(4-methoxyphenyl)propionyl]-L-leucine]
680 | CCOC(=O)[C@H](CC(C)C)NC(=O)C(Cc1ccccc1)CP(=O)(O)O (single isomer, unassigned) [compound 11]
100000 | CCOC(=O)[C@H](CC(C)C)NC(=O)C(Cc1ccccc1)CP(=O)(O)O (single isomer, unassigned) [compound 12]
160 | CC(C)C[C@H](NC(=O)C(Cc1ccccc1)CP(=O)(O)O)C(=O)O (single isomer, unassigned) [compound 13, N-[2-Benzyl-3-(dihydroxyphosphinyl)propionyl]leucine]
18000 | CC(C)C[C@H](NC(=O)C(Cc1ccccc1)CP(=O)(O)O)C(=O)O (single isomer, unassigned) [compound 14, N-[2-Benzyl-3-(dihydroxyphosphinyl)propionyl]leucine]
30000 | C[C@H](CS)C(=O)N1CCC[C@H]1C(=O)O [Captopril, 1-(D-3-mercapto-2-methylpropanoyl)-L-proline (S,S), reference compound]
680 | CC(C)C[C@H](NC(=O)C(Cc1ccccc1)P(=O)(O)O)C(=O)O (stereo partly drawn) [Compound No. 7, N-[2-(Dihydroxyphosphinyl)-3-phenylpropionyl]-L-leucine tri-lithium salt]
6800 | CC(C)C[C@H](NC(=O)C(Cc1ccc(Br)cc1)P(=O)(O)O)C(=O)O (stereo partly drawn) [Compound No. 9, N-[3-(4-bromophenyl)-2-dihydroxyphosphinylpropionyl]-L-leucine, monosodium salt]
23000 | CC(C)C[C@H](NC(=O)C(Cc1ccc(C(C)C)cc1)P(=O)(O)O)C(=O)O (stereo partly drawn) [Compound No. 10, N-[2-dihydroxyphosphinyl-3-(4-isopropylphenyl)propionyl]-L-leucine, disodium salt]
600 | CCOC(=O)[C@H](CC(C)C)NC(=O)C(Cc1ccccc1)P(=O)(O)O (stereo partly drawn) [compound 4, N-[2-(Dihydroxyphosphinyl)-3-phenylpropionyl.-L-leucine] ethyl ester]
1500 | CCOC(=O)[C@H](CC(C)C)NC(=O)C(Cc1ccccc1)P(=O)(O)O (stereo partly drawn) [compound 5, N-[2-(Dihydroxyphosphinyl)-3-phenylpropionyl.-L-leucine] ethyl ester]
130 | CC(C)C[C@H](NC(=O)C(Cc1ccccc1)P(=O)(O)O)C(=O)O (stereo partly drawn) [compound 6, N-[2-(Dihydroxyphosphinyl)-3-phenylpropionyl]-L-leucine tri-lithium salt]

same assay, conditions: no effect at 3 × 10^-5; leucine enkephalin 5×10^-5 M; 30° C.; 30 min with enzyme; read-out: IC50 (footnote symbol: no effect)

Structure (SMILES) | IC50 [nM]
CCOC(=O)[C@H](CC(C)C)NC(=O)C(Cc1ccccc1)P(=O)(OCC)OCC (stereo partly drawn) [compound 2, N-[2-(Diethoxyphosphinyl)-3-phenylpropionyl]-L-leucine ethyl ester] | > 30000
CCOP(=O)(OCC)C(Cc1ccccc1)C(=O)N[C@@H](CC(C)C)C(=O)O (stereo partly drawn) [compound 8, N-[2-(Diethoxyphosphinyl)-3-phenylpropionyl]-L-leucine] | > 30000

test system: ACE versus enkephalinase; assay: not given; conditions: reported by Swerts et al.; ACE vs enkephalinase; cited from earlier work

Structure (SMILES) | concentration required to inhibit ACE by 50% lower than that required for the same degree of inhibition of enkephalinase
C[C@H](CS)C(=O)N1CCC[C@H]1C(=O)O [Captopril, 1-(D-3-mercapto-2-methylpropanoyl)-L-proline (S,S), reference compound] | approximately 1000 fold
